Laboratory results taken from patent publication US20040266805A1, “Inflammation modulatory compound” (priority 2001, published 2004).
Where “and” joins values, the source holds several entries; their conditions need not be identical. Equal entries are not always repeated.

What was measured:
[1] = tested on: Splenocytes and thymocytes; assay: Apoptosis by Annexin-V staining and flow cytometry; format: cell-based, rat; details: for Effect on apoptosis in cells following any of the culture periods: culture 6, 24, 48 or 72 h; for Effect on ConA-induced apoptosis in thymocytes: morphine 10^−8 to 10^−18 mol/l; for Effect on apoptosis in basal non-activated splenocytes and thymocytes: pre-incubation 1 h, basal apoptosis 4-8%
Procedure: Splenocytes and thymocytes obtained from adult male Wistar rats were cultured as previously described (10). Cells were incubated with EM-1, EM-2 or morphine at various concentrations for 1 h and were then activated with either Concanavalin A (ConA, 5 μg/ml, Sigma UK) or lipopolysaccharide (LPS, 25 μg/ml, Sigma, UK) and cultured for 6, 24, 48 or 72 h. After culture, cells were stained with Annexin-V-Fluos (Roche, Mannheim, Germany) and analysed by flow cytometry (Becton Dickinson, UK). Apoptosis in basal non-activated splenocytes and thymocytes was 4-8%, and pre-incubation with EM-1, EM-2 or morphine had no effect on this. ConA at 1 or 5 μg/ml induced 10-15 and 20-30% apoptosis respectively in rat splenocytes, values which were not altered by pre-incubation with EM-2 at concentrations of 10^−8 to 10^−18 mol/l. […] No effect of morphine, EM-1 or EM-2 was observed on apoptosis in cells following any of the culture periods.

[2] = tested on: rat Fas in splenocytes and thymocytes; assay: Fas expression by antibody staining and flow cytometry; format: cell-based; details: basal or ConA activated splenocytes and thymocytes, cultured 6 h
Procedure: Splenocytes and thymocytes, whether basal or ConA activated, were cultured for 6h in the presence of EM-1, EM-2 or morphine (concentration ranges as above) and were then stained with an antibody specific for rat Fas (Transduction Laboratories, Lexington, Ky., USA) and analysed by flow cytometry.

[3] = tested on: Adjuvant arthritis (AA) in adult male Lewis rats; assay: Intraperitoneal treatment of existing inflammation with endomorphin in adjuvant arthritis rats; format: in vivo, rat
Procedure: (§1) Adjuvant arthritis (AA) was induced in adult male Wistar rats by a single intradermal injection (0.1 ml) of a suspension of ground, heat-killed M. butyricum in paraffin oil (10 mg/ml) into the tail base (9). Rats were despatched 14 days following injection and spleens, thymuses and hind paws were collected on dry ice and stored at −80° C. Spleens, thymuses and synovial tissue from the paws were acid-extracted and the extracts were measured for the presence of EM-1 and EM-2 by RIAs (8). EM-1 contents in the spleen (p<0.05) and thymus (p<0.075) were elevated compared to tissues from non-AA controls (FIG. 4). […] Neither EM-1 or EM-2 were detectable in extracts of synovial tissues from control non-AA rats (FIG. 5).
Adjuvant arthritis (AA) was induced in adult male Lewis rats as above. Saline vehicle or 1 μmol of endomorphin in saline was given as an intraperitoneal (ip) injection on days 11, 12 and 13 after adjuvant injection, and after the onset of inflammation, to assess the modulation effect of the endomorphin.

[4] = tested on: Adjuvant arthritis (AA) in adult male Wistar rats; assay: Intraplantar treatment with endomorphin 1 prior to onset of inflammation in adjuvant arthritis rats; format: in vivo, rat; details: for Mean Paw Volume: days 9-13, day 14, vehicle 2.924
Procedure: as §1
(§2) Adjuvant arthritis (AA) was induced in adult male Wistar rats using the same protocol as described in Example 2 with saline vehicle or endomorphin 1 in saline being injected on days 9, 10, 11, 12 and 13 after adjuvant injection and prior to the onset of inflammation.

[5] = tested on: arthritic male Wistar rats; assay: Intraperitoneal administration of EM-1 prior to onset of inflammation in arthritic rats; format: in vivo, rat; parameters: Mean Paw Volume: unit not given beside the values; details: for Mean Paw Volume: n=7
Procedure: as §2
The protocol of Example 3 above was followed using intraperitoneal injection of 0.1 and 1.0 μmol Endomorphin-1 or vehicle in arthritic male Wistar rats prior to the onset of inflammation.
EM-1 or vehicle was administered on days 9, 10, 11, 12 and 13.

Row | Compound | Effect on apoptosis in cells following any of the culture periods [1] | Effect on ConA-induced apoptosis in thymocytes [1] | Effect on apoptosis in basal non-activated splenocytes and thymocytes [1] | Alteration in expression of Fas [2] | Effect on existing inflammation ([3]; dose of 1 μmol ip) | Paw Volume ([3]; individual rats, 1 μmol ip on days 11, 12 and 13 after adjuvant, after onset of inflammation, day 14, listed as Endomorphin (EM-1)) | Paw Volume, mean ([3]; n=8, SEM=0.10, 1 μmol ip on days 11, 12 and 13, day 14, vehicle mean 2.96) [mL] | Mean Paw Volume ([4]; 10 pmol intraplantar, n=14) [mL] | Mean Paw Volume ([4]; 100 pmol intraplantar, n=14) [mL] | Mean Paw Volume ([4]; 1 nmol intraplantar, n=12) [mL] | Mean Paw Volume ([4]; 10 nmol intraplantar, n=14) [mL] | Mean Paw Volume ([4]; 100 fmol intraplantar, n=14) [mL] | Reduction of inflammation (decrease in paw volume compared to the vehicle group) ([4]; intraplantar injection, 100 fmols) [%] | Mean Paw Volume ([5]; 0.1 μmol ip group, Day 0 (before treatment on days 9-13)) | Mean Paw Volume ([5]; 0.1 μmol ip on days 9-13, Day 14, vehicle 2.927) | Mean Paw Volume ([5]; 1.0 μmol ip group, Day 0 (before treatment on days 9-13)) | Mean Paw Volume ([5]; 1.0 μmol ip on days 9-13, Day 14, vehicle 2.927) | Reduction in inflammation ([5]; 1 μmol ip, prophylactically) [%] | Effect on ConA-induced apoptosis in rat splenocytes ([1]; ConA 1 or 5 μg/ml, pre-incubation at 10^−8 to 10^−18 mol/l) | Effect on LPS-induced apoptosis ([1]; LPS 5 and 25 μg/ml, 10-12% apoptosis)
1 | CN1CC[C@]23c4c5ccc(O)c4O[C@H]2[C@@H](O)C=C[C@H]3[C@H]1C5 [morphine, reference compound] | No effect | Neither EM-1, EM-2 nor morphine (concentration range of morphine 10^−8 to 10^−18 mol/l) had any effect | had no effect | No alteration |  |  |  |  |  |  |  |  |  |  |  |  |  |  |  | 
2 | endomorphin-1 [EM-1] | No effect | Neither EM-1, EM-2 nor morphine (concentration range of morphine 10^−8 to 10^−18 mol/l) had any effect | had no effect | No alteration | reduce existing inflammation | 3.15 ml and 3.04 ml and 2.57 ml (2×) and 2.41 ml and 2.81 ml and 2.35 ml and 2.61 ml | 2.69 | 2.779 | 2.381 | 2.638 | 2.260 | 2.450 | ≤ 16 | 1.613 | 2.494 | 1.723 | 2.349 | 20 |  | 
3 | endomorphin-2 [EM-2] | No effect | Neither EM-1, EM-2 nor morphine (concentration range of morphine 10^−8 to 10^−18 mol/l) had any effect | had no effect | No alteration |  |  |  |  |  |  |  |  |  |  |  |  |  |  | not altered | did not alter
